# Calls of active or inactive are those of the source.
# Experiments:
# Cytochrome P450 2C19 = Cytochrome P450 2C19 (Homo sapiens, UniProt P33261); test: Cytochrome panel assay with activity outcomes. Panel member name: p450-cyp2c19 Compounds with AC50 equal or less than 10 uM are considered active; format: functional; settings: read-out: AC50
# Cytochrome P450 2D6 = Cytochrome P450 2D6 (Homo sapiens, UniProt P10635);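 note: CYP2D6 member of a cytochrome P450 panel assay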
# Cytochrome P450 3A4 = Cytochrome P450 3A4 (Homo sapiens, UniProt P08684);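 note: CYP3A4 tested as one member of a cytochrome P450 panel screen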
# Cytochrome P450 3A4, sequence (P08684 whole entry): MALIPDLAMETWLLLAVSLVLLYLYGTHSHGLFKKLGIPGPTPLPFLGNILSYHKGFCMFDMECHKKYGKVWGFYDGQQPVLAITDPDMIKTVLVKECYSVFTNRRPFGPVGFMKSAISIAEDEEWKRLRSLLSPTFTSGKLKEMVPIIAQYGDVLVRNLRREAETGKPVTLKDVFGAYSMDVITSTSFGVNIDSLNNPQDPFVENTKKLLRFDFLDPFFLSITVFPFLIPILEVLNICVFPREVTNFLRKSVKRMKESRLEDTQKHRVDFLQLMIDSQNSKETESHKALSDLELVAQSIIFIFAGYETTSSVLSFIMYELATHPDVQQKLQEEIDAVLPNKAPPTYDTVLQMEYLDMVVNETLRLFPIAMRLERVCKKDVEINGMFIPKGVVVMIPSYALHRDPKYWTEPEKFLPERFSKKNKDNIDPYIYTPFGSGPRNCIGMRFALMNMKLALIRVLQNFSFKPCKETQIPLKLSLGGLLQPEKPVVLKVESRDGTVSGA
# cells = format: functional
# [1] = NIH-3T3 fibroblast cytotoxicity, dose response, cytotoxicity control, cell-based, fluorescence, Alamar Blue, secondary assay (AID 2327); format: functional;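 note: NIH-3T3 mouse fibroblasts cultured with fluconazole at 8 µg/mL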
# [2] = fluconazole-exposed Candida albicans growth modulators – fluorescence, retest, confirmation (AID 2467); format: functional, cell-based
# [3] = Trypanosoma cruzi growth suppression in host cells – NIH3T3 host cells, beta-gal luminescence, confirmation (AID 2044); format: functional, cell-based;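 note: intracellular parasites grown in NIH/3T3 mouse fibroblasts as host cells; luminescent beta-galactosidase reporter signal from transgenic T. cruzi replicating inside host cells; inhibitors lower the luminescence signal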
# [4] = microbe, parasite or virus in culture; format: functional; settings: Mycobacterium tuberculosis
# [5] = NIH3T3 cell viability loss – ATP luminescence, mouse fibroblasts, counter-screen, dose response (AID 2010); format: functional, cell-based;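 note: cells exposed to compound for about 90 hours before reading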
# Protein skinhead-1 = molecular target: T1, Protein skinhead-1 (Caenorhabditis elegans, UniProt P34707); format: functional
# T1 sequence (P34707 whole entry): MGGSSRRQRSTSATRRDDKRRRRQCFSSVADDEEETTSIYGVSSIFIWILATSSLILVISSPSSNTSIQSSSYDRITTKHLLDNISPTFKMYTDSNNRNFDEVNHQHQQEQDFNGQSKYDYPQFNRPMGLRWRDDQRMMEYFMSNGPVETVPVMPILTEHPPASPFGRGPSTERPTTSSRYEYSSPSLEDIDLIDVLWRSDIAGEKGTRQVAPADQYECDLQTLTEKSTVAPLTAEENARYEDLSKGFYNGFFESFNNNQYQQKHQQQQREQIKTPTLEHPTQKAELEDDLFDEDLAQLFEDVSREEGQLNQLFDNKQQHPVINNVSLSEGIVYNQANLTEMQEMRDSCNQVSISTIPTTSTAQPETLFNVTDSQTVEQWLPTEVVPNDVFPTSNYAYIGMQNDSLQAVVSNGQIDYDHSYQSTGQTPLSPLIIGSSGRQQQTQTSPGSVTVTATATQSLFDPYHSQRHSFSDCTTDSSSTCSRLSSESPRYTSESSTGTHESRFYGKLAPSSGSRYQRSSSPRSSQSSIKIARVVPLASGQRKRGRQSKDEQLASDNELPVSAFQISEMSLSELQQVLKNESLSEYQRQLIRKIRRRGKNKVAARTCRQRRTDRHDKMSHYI
# Cytochrome P450 2C9 = Cytochrome P450 2C9 (Homo sapiens, UniProt P11712)
# Cytochrome P450 2C9, sequence (P11712 whole entry): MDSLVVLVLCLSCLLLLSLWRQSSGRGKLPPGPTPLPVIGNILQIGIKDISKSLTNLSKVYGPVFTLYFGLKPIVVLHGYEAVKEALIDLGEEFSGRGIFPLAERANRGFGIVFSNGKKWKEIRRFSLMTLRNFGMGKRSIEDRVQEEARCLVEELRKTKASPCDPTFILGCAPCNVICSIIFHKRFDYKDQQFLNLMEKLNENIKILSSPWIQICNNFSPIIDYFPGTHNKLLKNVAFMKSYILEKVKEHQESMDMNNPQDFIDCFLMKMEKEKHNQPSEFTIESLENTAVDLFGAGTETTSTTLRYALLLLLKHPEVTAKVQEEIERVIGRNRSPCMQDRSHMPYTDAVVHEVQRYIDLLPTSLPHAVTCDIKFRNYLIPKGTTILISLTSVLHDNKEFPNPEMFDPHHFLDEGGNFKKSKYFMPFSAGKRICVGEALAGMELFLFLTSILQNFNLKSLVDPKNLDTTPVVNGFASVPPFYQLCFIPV
# [6] = molecular target: T2, Replicative DNA helicase DnaB (Mycobacterium tuberculosis, UniProt P9WMR3); test: DnaB intein splicing inhibitors, dose response, biochemical, cell-free fluorescence (AID 449749); format: functional
# T2 sequence (P9WMR3 whole entry): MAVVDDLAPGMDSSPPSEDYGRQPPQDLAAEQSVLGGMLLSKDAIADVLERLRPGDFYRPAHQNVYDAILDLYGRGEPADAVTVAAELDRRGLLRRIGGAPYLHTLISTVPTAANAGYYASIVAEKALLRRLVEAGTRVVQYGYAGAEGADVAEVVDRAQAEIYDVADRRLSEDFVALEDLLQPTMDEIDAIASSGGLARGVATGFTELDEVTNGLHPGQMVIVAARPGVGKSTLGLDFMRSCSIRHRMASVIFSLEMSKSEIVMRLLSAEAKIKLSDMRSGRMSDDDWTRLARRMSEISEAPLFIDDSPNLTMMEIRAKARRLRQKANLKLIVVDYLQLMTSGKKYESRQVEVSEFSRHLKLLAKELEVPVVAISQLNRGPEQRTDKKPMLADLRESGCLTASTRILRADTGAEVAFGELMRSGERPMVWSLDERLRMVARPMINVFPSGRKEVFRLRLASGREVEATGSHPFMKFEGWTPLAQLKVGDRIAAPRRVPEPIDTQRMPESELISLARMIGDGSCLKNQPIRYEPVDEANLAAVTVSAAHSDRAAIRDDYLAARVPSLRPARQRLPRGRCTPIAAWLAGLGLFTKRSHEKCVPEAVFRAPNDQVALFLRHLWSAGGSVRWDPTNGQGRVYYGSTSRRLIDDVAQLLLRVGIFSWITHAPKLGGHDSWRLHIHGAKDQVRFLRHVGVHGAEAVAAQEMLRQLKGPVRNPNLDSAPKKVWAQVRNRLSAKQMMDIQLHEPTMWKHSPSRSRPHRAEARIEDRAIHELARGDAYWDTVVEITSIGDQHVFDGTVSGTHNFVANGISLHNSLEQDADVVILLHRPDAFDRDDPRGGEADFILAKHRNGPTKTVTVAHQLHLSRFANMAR
# Protein RecA = molecular target: T3, Protein RecA (Mycobacterium tuberculosis, UniProt P9WHJ3); test: Fluorescence Cell-Free Homogeneous Dose Retest to Identify Inhibitors of RecA-Intein Splicing Activity. [Related pubchem assays (depositor defined):AID2097, AID2223, AID489010, AID492950]; format: functional
# T3 sequence (P9WHJ3 whole entry): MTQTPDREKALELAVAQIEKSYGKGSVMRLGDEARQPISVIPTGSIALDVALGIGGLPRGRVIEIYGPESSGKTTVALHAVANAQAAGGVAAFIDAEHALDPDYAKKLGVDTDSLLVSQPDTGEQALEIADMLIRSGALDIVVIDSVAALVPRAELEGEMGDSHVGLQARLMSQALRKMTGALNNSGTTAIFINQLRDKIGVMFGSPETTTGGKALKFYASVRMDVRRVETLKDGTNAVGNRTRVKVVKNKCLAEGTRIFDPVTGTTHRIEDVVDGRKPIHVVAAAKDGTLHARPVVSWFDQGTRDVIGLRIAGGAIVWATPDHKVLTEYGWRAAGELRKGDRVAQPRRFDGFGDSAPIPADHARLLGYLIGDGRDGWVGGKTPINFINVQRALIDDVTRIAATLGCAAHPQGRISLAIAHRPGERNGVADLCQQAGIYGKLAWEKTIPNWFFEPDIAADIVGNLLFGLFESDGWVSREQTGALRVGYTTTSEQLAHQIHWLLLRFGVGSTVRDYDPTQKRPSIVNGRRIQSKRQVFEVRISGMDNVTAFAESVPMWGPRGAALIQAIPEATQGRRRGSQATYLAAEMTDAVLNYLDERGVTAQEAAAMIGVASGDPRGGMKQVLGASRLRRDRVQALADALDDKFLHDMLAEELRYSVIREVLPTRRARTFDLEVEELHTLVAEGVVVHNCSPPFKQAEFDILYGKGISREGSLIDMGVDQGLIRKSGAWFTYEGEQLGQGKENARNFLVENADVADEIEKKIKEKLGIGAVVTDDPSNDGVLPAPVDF
# [7] = molecular target: T4, Corticotropin-releasing factor receptor 2/Corticotropin-releasing factor-binding protein (Homo sapiens, UniProt P24387+Q13324); test: Dose Response confirmation of uHTS hits for small molecule antagonists of the CRF-binding protein and CRF-R2 receptor complex.; format: functional; settings: read-out: IC50_Mean
# T4 sequence (Q13324 whole entry): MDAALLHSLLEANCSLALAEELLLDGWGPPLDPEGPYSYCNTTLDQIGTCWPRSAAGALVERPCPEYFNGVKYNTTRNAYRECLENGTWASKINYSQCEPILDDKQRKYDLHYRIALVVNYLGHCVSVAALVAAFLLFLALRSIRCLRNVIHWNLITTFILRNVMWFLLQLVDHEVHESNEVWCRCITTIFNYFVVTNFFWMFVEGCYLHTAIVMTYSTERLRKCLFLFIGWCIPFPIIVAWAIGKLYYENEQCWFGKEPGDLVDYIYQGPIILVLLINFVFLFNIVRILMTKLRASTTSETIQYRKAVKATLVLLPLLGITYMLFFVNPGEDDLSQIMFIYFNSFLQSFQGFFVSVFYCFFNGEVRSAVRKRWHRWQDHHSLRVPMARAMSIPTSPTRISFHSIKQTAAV
# T4 sequence (P24387 whole entry): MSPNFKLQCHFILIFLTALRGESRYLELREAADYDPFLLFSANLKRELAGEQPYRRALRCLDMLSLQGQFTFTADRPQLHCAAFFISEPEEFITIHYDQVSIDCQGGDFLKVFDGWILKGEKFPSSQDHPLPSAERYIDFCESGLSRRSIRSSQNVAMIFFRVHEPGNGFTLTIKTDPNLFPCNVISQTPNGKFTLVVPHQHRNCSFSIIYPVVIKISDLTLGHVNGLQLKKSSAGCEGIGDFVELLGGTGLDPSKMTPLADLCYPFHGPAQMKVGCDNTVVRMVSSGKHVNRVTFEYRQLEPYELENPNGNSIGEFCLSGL
# [8] = molecular target: T4, Corticotropin-releasing factor receptor 2/Corticotropin-releasing factor-binding protein; test: activators of CRF receptor 2 with binding protein – uHTS hits, confirmation (AID 602473); format: functional; settings: read-out: EC50_Mean
# [9] = reduction of Shn3 3'UTR-driven luciferase in osteoblasts – cell-based, Clone20 osteoblasts, firefly luciferase, cherry-picked, dose response (AID 624132); format: functional;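 note: firefly luciferase luminescence from reporter carrying the Shn3 3'UTR in osteoblasts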
# [10] = loss of viability in HepG2 cells – cell-based, CellTiter-Glo, cherry-picked, cytotoxicity control for Shn3 inhibitor project, dose response (AID 624134); format: functional
# [11] = viability of uninfected HEp-2 cells – cell-based, HTS, cytotoxicity control for RSV inhibitor project, dose response (AID 2410); format: functional; settings: human respiratory syncytial virus
# [12] = system: Streptococcus sp. 'group A'; test: Streptococcus pyogenes SK(-)GAS viability under kanamycin – luminescence, BacTiterGlo, confirmation, counter-screen for streptokinase expression inhibitor project, dose response (AID 1900); format: functional, organism-based
# Streptokinase A = molecular target: T5, Streptokinase A (Streptococcus pyogenes serotype M1, UniProt P10520); test: viability-normalized secreted streptokinase activity reduction – plasminogen activation absorbance, OD405, dose response (AID 1914); format: functional, Streptococcus pyogenes M1 GAS;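 note: secreted streptokinase activity via plasminogen activation per viability signal from cell pellet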
# T5 sequence (P10520 whole entry): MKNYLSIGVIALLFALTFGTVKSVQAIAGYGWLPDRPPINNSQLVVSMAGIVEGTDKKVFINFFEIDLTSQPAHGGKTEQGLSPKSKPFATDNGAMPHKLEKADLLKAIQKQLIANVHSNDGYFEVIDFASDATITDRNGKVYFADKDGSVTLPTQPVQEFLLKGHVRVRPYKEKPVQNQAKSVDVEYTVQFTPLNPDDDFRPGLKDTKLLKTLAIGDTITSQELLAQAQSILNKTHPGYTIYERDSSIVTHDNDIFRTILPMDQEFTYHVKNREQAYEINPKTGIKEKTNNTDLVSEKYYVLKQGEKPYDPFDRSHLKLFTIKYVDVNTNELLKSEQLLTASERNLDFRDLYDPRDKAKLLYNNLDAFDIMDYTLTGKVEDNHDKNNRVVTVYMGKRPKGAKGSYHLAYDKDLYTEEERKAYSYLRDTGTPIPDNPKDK
# Streptococcus = test: GAS UMAA2166 growth inhibition – luminescence, BacTiterGlo, counter-screen for streptokinase expression inhibitor project, dose response (AID 1915); format: functional, organism-based;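 note: potency for reduction of bacterial viability or growth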
# Cytochrome P450 2D6, sequence (P10635 whole entry): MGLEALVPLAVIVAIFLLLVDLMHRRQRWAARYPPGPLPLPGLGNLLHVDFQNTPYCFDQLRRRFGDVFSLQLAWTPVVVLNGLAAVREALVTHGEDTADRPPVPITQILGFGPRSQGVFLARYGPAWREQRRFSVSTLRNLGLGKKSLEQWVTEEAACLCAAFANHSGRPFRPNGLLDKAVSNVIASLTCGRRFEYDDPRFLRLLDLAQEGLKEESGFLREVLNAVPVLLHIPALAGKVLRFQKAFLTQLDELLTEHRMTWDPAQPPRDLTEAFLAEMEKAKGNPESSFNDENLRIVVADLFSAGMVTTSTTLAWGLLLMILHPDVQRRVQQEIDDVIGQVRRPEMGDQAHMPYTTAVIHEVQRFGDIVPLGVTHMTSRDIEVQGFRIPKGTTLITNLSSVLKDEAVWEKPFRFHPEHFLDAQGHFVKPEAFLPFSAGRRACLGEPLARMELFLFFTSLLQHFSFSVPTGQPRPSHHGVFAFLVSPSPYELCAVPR
# Cytochrome P450 2C19, sequence (P33261 whole entry): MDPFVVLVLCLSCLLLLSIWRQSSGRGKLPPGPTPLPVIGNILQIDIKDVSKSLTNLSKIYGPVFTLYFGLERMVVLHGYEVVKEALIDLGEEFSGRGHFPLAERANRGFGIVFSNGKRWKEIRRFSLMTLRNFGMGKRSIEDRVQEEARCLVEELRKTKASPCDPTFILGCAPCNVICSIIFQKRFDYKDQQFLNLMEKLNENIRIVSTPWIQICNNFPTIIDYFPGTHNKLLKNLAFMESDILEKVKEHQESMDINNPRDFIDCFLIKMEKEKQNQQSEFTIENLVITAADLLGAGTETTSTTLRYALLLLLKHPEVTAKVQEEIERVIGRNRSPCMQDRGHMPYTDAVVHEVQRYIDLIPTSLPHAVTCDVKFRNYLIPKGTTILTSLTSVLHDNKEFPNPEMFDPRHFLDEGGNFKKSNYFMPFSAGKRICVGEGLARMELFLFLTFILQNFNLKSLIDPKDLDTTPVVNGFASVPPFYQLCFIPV
structure (smiles),measurement,setting,value
CC(C)C(CCNC(=O)CC(Cc1ccccc1)c1ccco1)c1ccco1 (stereo not drawn),AC50,Cytochrome P450 2C19,0.631 µM (inconclusive)
same,AC50,Cytochrome P450 2D6,5.62 µM (inconclusive)
same,AC50,Cytochrome P450 3A4,39.8 µM (inconclusive)
CCOC(=O)Nc1cccc(OCC(=O)Nc2ccccc2OC)c1,IC50,cells,> 50 µM (active)
c1ccc(CC2CCN(C3=Nc4cccc5cccc3c45)CC2)cc1,EC50,[1],73.9 µM (active)
same,EC50,[2],4.58 µM (active)
same,EC50,[3],0.935 µM (active)
same,CC50,[4],> 40 µM (active)
same,EC50,[5],> 30 µM (not active)
Cc1cc(C)c2ccc3c(C)c(C)[nH]c3c2n1,IC50,Protein skinhead-1,< 3.13 µM (active)
Clc1ccc(-c2csc(N3CCSCC3)n2)cc1,IC50,Protein skinhead-1,> 100 µM (inactive)
CNc1ncnc2ccc(-c3ccccc3OC)cc12,AC50,Cytochrome P450 2C19,31.6 µM (inconclusive)
same,AC50,Cytochrome P450 2D6,25.1 µM (inconclusive)
CCCn1cnc2c(SCc3ccc(Cl)cc3)nc(N)nc21,AC50,Cytochrome P450 2D6,3.16 µM (inconclusive)
same,AC50,Cytochrome P450 3A4,6.31 µM (inconclusive)
same,AC50,Cytochrome P450 2C9,6.31 µM (inconclusive)
Cc1cnc(CNc2nc(-c3ccoc3)nc3ccccc23)cn1,AC50,Cytochrome P450 2D6,20 µM (inconclusive)
Cc1n[nH]c2c1C(c1ccc(OC(=O)c3ccco3)cc1)C(C#N)=C(N)O2 (stereo not drawn),IC50,cells,35.2 µM (active)
same,AC50,[6],9.43 µM (active)
same,EC50,Protein RecA,3.62 µM (active)
Clc1ccc(-c2cc(CSc3cccc(Cl)c3)on2)cc1,IC50,Protein skinhead-1,59.2 µM (inactive)
COc1cccc(Cn2c(=O)c(-c3cccs3)nc3cncnc32)c1,AC50,Cytochrome P450 2D6,6.31 µM (inconclusive)
Cc1cccc(C(=O)N2CCc3ccccc3C2)c1[N+](=O)[O-],IC50,[7],> 47.1 µM (inactive)
same,EC50,[8],> 53 µM (inactive)
COC(=O)C1=C(CN2CCSCC2)NC(=O)NC1c1cc(C)ccc1C (stereo not drawn),IC50,Protein skinhead-1,> 100 µM (inactive)
CC(C)(C)/C(O)=C/c1nc2ccccc2oc1=O,IC50,cells,3.06 µM (active)
CSc1cccc(NC(=O)Nc2ccc(Cl)cc2)c1,AC50,Cytochrome P450 2D6,3.55 µM (inconclusive)
same,AC50,Cytochrome P450 3A4,14.1 µM (inconclusive)
CC(C)COc1ccc(-c2nnc(-c3ccco3)o2)cc1,IC50,Protein skinhead-1,> 100 µM (inactive)
CCOC(=O)CN(C(=O)CNC(=O)c1cccs1)C(C(=O)NC1CCCCC1)c1cccs1 (stereo not drawn),IC50,Protein skinhead-1,> 100 µM (inactive)
CCOC(=O)C(Cc1cc(C(C)=O)ccc1OCC)C(=O)OCC,IC50,Protein skinhead-1,> 100 µM (inactive)
O=C1c2ccccc2C(=O)N1CCCSc1ccccc1,AC50,Cytochrome P450 2D6,3.16 µM (inconclusive)
Cc1ccc(S(=O)(=O)N2CCC3(CC2)OCCN3S(=O)(=O)c2c(C)cc(C)cc2C)cc1,AC50,[9],6.81 µM (active)
same,AC50,[10],56.1 µM (active)
COc1ccc(N(CC(=O)NC2CCCCC2)C(=O)CNC(=O)c2cccs2)cc1,IC50,Protein skinhead-1,> 100 µM (inactive)
CCOC(=O)C(CC)/C(C)=N\NC(=O)c1cccc(C)c1 (stereo not drawn),IC50,[7],> 47.1 µM (inactive)
same,EC50,[8],> 53 µM (inactive)
O=C(NCC1CC1)c1ccc(-c2cn[nH]c2)c2ccoc12,IC50,Protein skinhead-1,100 µM (inactive)
CN1c2ccsc2/C(=N/Nc2ccccc2)CS1(=O)=O,CC50,[11],> 50 µM (active)
same,EC50,[12],2.34 µM (active)
same,EC50,Streptokinase A,4.12 µM (active)
same,EC50,Streptococcus,16.1 µM (active)
same,IC50,cells,37 µM (active)
